This passage reports Activity results from ChEMBL document CHEMBL4266035, “Insulin Mimetic Activity of 3,4- Seco and Hexanordammarane Triterpenoids Isolated from Gynostemma longipes” (J Nat Prod, 2018).

Data set [1] concerns C2C12. Put plainly: Cytotoxicity against mouse C2C12 cells at 40 uM after 24 hrs by MTT assay. The class given is cell-based. Particulars: c2c12, 24 h. On the technique in general: Tetrazolium dyes change colour on reduction, which living cells bring about.
In data set [2] the test system is 3T3-L1. Description: Cytotoxicity against mouse 3T3L1 cells at 40 uM after 24 hrs by MTT assay. The class given is cell-based. Particulars: 3t3-l1, 24 h.
The test system of data set [3] is C2C12. Description: Induction of AMPKalpha phosphorylation at Thr-172 residue in mouse C2C12 cells at 20 uM after 1 hr by Western blot analysis. The class given is cell-based. For orientation: Immunoblotting shows a protein as a band on a membrane.
For data set [4], the system named is 3T3-L1. Put plainly: Induction of 2-NBDG uptake in differentiated mouse 3T3L1 cells at 20 uM after 1 hr by fluorescence microscopic method. The class given is functional, cell-based.
Data set [5] relates to 3T3-L1. Description: Induction of 2-NBDG uptake in differentiated mouse 3T3L1 cells at 10 uM after 1 hr by fluorescence microscopic method. Format: functional, cell-based.
The subject of data set [6] is C2C12. Put plainly: Cytotoxicity against mouse C2C12 cells at 10 uM after 24 hrs by MTT assay. The class given is cell-based. Particulars: c2c12, 24 h.
Data set [7] deals with 3T3-L1. Put plainly: Cytotoxicity against mouse 3T3L1 cells at 10 to 30 uM after 24 hrs by MTT assay. The class given is cell-based. Particulars: 3t3-l1, 24 h.
Data set [8] relates to C2C12. Put plainly: Induction of AMPKalpha phosphorylation at Thr-172 residue in mouse C2C12 cells at 10 uM after 1 hr by Western blot analysis. Format: cell-based.
Data set [9] relates to C2C12. Put plainly: Activation of AMPKalpha in mouse C2C12 cells assessed as upregulation of ACC-phosphorylation at 20 uM after 1 hr by Western blot analysis. Format: cell-based.
Data set [10] is filed under the species Mus musculus. Description: Activation of AMPK signaling pathway in mouse 3T3L1 cells assessed as induction of GLUT4 translocation at 20 uM after 24 hrs by Western blot analysis. Format: cell-based.
The subject of data set [11] is 3T3-L1. Description: Induction of 2-NBDG uptake in differentiated mouse 3T3L1 cells after 1 hr by fluorescence microscopic method. Format: functional, cell-based.

The source made the active and inactive calls. The rule behind the calls is not given here.

In the case of `CC(=O)[C@H]1CC[C@]2(C)[C@@H]1C(=O)C[C@@H]1[C@@](C)(CCC(=O)O)[C@@H](C(C)(C)O)CC[C@]12C`, the Activity result in data set [1] and in data set [2] was “Non-Toxic” in each case. In addition, the outcome in [3] and in [4] was Active.

In the case of `CC(=O)[C@H]1CC[C@]2(C)[C@@H]1C(=O)C[C@@H]1[C@@]3(C)CC[C@H](O[C@@H]4O[C@H](CO[C@@H]5O[C@@H](C)[C@H](O)[C@@H](O)[C@H]5O)[C@H](O)[C@H](O[C@@H]5O[C@@H](C)[C@H](O)[C@@H](O)[C@H]5O)[C@H]4O[C@@H]4O[C@@H](C)[C@H](O)[C@@H](O)[C@H]4O)C(C)(C)[C@@H]3CC[C@]12C`, the Activity entry in [1] and in data set [2] was “Non-Toxic” throughout. Moreover, the result in data set [3] and in data set [4] was Active.

In the case of `CC(C)=CCC[C@](C)(O)[C@H]1CC[C@]2(C)[C@@H]1C(=O)C[C@@H]1[C@@]3(C)CC[C@H](O[C@@H]4O[C@H](CO)[C@@H](O)[C@H](O)[C@H]4O[C@@H]4O[C@@H](C)[C@H](O)[C@@H](O)[C@H]4O)C(C)(C)[C@@H]3CC[C@]12C`, the Activity entry is given as “Toxic” in data set [1], “Toxic” in [2], “Non-Toxic” in [6] and “Non-Toxic” in data set [7]. Moreover, the result in [5] and in data set [8] was Active.

On to `C[C@@H]1O[C@@H](OC[C@H]2O[C@@H](O[C@H]3CC[C@]4(C)[C@H]5CC(=O)[C@@H]6[C@@H]([C@@](C)(O)CC(=O)CC(C)(C)O)CC[C@@]6(C)[C@]5(C)CC[C@H]4C3(C)C)[C@H](O[C@@H]3O[C@@H](C)[C@H](O)[C@@H](O)[C@H]3O)[C@@H](O[C@@H]3O[C@@H](C)[C@H](O)[C@@H](O)[C@H]3O)[C@H]2O)[C@H](O)[C@H](O)[C@H]1O`, for which the Activity entry in [1] and in data set [2] was “Non-Toxic” each time. Moreover, the outcome in data set [3] was inactive. The outcome in data set [4] was Active.

With `CC(C)=CC(=O)C[C@](C)(O)[C@H]1CC[C@]2(C)[C@@H]1C(=O)C[C@@H]1[C@@](C)(CCC(=O)O)[C@@H](C(C)(C)O)CC[C@]12C`, the Activity result was “Non-Toxic” in data set [1], “Non-Toxic” in data set [2] and “Dose-dependent effect” in [11]. The result in data set [9], in data set [10] and in [3] was Active.

`CC(C)(O)CC(=O)C[C@](C)(O)[C@H]1CC[C@]2(C)[C@@H]1C(=O)C[C@@H]1[C@@](C)(CCC(=O)O)[C@@H](C(C)(C)O)CC[C@]12C`: the figures for the Activity result in data set [1], in data set [2] and in data set [11] were “Non-Toxic”, “Non-Toxic” and “Dose-dependent effect”, respectively. In addition, the result in data set [9], in data set [10] and in data set [3] was Active.

Take `C[C@@H]1O[C@@H](O[C@H]2[C@H](O[C@H]3CC[C@]4(C)[C@H]5CC(=O)[C@@H]6[C@@H]([C@@](C)(O)C/C=C/C(C)(C)O)CC[C@@]6(C)[C@]5(C)CC[C@H]4C3(C)C)O[C@H](CO)[C@H](O)[C@@H]2O[C@@H]2O[C@@H](C)[C@H](O)[C@@H](O)[C@H]2O)[C@H](O)[C@H](O)[C@H]1O`: the figures for the Activity result in [1], in [2] and in data set [11] were “Non-Toxic”, “Non-Toxic” and “Dose-dependent effect”, respectively. Besides, the result in data set [10] and in data set [3] was Active.

With `C[C@@H]1O[C@@H](OC[C@H]2O[C@@H](O[C@H]3CC[C@]4(C)[C@H]5CC(=O)[C@@H]6[C@@H]([C@@](C)(O)C/C=C/C(C)(C)O)CC[C@@]6(C)[C@]5(C)CC[C@H]4C3(C)C)[C@H](O[C@@H]3O[C@@H](C)[C@H](O)[C@@H](O)[C@H]3O)[C@@H](O[C@@H]3O[C@@H](C)[C@H](O)[C@@H](O)[C@H]3O)[C@H]2O)[C@H](O)[C@H](O)[C@H]1O`, the Activity result in data set [1] and in data set [2] was “Non-Toxic” in each case. For the same molecule, in [3], the outcome was inactive. The outcome in data set [4] was Active.

Take `CC(=O)[C@H]1CC[C@]2(C)[C@@H]1C(=O)C[C@@H]1[C@@]3(C)CC[C@H](O[C@@H]4O[C@H](CO)[C@H](O)[C@H](O[C@@H]5O[C@@H](C)[C@H](O)[C@@H](O)[C@H]5O)[C@H]4O[C@@H]4O[C@@H](C)[C@H](O)[C@@H](O)[C@H]4O)C(C)(C)[C@@H]3CC[C@]12C`: the figures for the Activity result in data set [1], in [2] and in data set [11] were “Non-Toxic”, “Non-Toxic” and “Dose-dependent effect”, respectively. The outcome in data set [9], in [10] and in data set [3] was Active.

In the case of `CC(C)=CC(=O)/C=C(/C)[C@H]1CC[C@]2(C)[C@@H]1C(=O)C[C@@H]1[C@@]3(C)CC[C@H](O[C@@H]4O[C@H](CO[C@@H]5O[C@@H](C)[C@H](O)[C@@H](O)[C@H]5O)[C@H](O)[C@H](O[C@@H]5O[C@@H](C)[C@H](O)[C@@H](O)[C@H]5O)[C@H]4O[C@@H]4O[C@@H](C)[C@H](O)[C@@H](O)[C@H]4O)C(C)(C)[C@@H]3CC[C@]12C`, the Activity result in [1] and in [2] was “Non-Toxic” each time. Also, the outcome in [3] was inactive. Further, in data set [4], the result was Active.
